For 10 compounds, Ki and ED50 results are on record in ChEMBL document CHEMBL1149085, “Potential utility of histamine H3 receptor antagonist pharmacophore in antipsychotics” (Bioorg Med Chem Lett, 2009).

One assay concerns the target Histamine H3 receptor (Homo sapiens, UniProt Q9Y5N1). In words: biochemical. The assay is classed as cell-based, HEK293.
Another assay addresses D(3) dopamine receptor (Homo sapiens, UniProt P35462). In words: biochemical.
A further assay addresses D(1B) dopamine receptor (Homo sapiens, UniProt P21918). In words: biochemical.
The next assay has as its target D(1A) dopamine receptor (Homo sapiens, UniProt P21728). In words: biochemical.
Another assay deals with D(2) dopamine receptor (Homo sapiens, UniProt P14416). In words: biochemical. The assay is classed as cell-based, CHO.
The species named for another assay is Mus musculus. In words: animal or person. In kind it is functional. The following applies: Swiss, Cerebral cortex, po, 1.5 h.

D(1B) dopamine receptor, sequence (P21918 whole entry): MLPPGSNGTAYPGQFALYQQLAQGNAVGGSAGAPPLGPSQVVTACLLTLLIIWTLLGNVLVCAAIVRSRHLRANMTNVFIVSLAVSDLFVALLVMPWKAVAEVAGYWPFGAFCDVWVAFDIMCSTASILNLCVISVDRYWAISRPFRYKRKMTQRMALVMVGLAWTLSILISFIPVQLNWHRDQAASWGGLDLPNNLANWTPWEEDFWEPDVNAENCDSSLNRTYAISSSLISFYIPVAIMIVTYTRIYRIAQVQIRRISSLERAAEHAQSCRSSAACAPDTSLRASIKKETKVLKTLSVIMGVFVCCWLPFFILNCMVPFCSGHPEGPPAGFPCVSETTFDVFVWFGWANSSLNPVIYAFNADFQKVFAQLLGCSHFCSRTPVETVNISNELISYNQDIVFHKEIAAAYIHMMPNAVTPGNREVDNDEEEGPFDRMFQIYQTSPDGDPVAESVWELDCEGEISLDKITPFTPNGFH
D(3) dopamine receptor, sequence (P35462 whole entry): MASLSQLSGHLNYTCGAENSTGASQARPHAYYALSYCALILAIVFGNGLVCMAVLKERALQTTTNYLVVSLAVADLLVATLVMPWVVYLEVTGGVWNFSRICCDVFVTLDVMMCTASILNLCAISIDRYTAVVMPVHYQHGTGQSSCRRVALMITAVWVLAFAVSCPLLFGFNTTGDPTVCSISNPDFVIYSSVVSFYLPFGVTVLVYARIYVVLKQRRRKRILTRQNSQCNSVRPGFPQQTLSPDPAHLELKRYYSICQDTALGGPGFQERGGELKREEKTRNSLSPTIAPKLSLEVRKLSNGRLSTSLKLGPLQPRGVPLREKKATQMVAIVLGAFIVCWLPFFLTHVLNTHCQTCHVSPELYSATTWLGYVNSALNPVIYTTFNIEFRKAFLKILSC
D(1A) dopamine receptor, sequence (P21728 whole entry): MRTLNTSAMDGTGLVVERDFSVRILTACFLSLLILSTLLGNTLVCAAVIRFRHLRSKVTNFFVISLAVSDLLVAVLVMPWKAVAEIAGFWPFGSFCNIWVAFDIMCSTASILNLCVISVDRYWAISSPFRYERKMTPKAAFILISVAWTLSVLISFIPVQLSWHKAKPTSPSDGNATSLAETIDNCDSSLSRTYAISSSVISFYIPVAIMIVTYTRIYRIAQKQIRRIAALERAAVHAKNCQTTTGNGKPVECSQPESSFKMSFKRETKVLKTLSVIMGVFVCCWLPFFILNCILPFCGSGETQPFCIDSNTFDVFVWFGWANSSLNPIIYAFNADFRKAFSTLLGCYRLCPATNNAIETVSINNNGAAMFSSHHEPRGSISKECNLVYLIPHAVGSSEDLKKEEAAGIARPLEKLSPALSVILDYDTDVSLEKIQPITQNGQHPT
Histamine H3 receptor, sequence (Q9Y5N1 whole entry): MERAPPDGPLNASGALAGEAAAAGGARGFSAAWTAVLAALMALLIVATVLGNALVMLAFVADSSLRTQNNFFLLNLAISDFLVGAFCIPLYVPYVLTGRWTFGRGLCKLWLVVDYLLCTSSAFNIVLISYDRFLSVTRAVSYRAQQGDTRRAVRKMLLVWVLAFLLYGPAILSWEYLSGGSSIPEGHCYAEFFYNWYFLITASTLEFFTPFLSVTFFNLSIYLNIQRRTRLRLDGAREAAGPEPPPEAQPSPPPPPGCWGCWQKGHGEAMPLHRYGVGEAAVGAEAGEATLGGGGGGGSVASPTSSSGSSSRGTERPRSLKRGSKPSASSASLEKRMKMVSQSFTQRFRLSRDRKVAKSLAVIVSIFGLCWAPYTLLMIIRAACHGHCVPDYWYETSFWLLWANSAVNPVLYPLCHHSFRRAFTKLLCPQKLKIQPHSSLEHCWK
D(2) dopamine receptor, sequence (P14416 whole entry): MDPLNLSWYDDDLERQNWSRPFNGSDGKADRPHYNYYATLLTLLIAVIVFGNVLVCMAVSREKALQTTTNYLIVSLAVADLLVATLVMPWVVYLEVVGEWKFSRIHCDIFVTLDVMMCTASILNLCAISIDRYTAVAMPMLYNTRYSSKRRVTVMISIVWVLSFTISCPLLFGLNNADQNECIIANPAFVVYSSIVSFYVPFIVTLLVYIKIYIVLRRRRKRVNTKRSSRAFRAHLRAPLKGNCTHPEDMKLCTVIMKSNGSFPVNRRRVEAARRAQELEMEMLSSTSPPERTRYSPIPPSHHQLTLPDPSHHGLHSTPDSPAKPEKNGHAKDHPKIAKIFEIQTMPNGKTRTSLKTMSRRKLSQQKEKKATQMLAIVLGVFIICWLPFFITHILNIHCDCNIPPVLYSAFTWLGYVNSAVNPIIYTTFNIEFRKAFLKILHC
Description for D(1A) dopamine receptor: Displacement of [3H]SCH23390 from human dopamine D1 receptor expressed in HEK cells
Description for D(1B) dopamine receptor: Displacement of [3H]SCH23390 from human dopamine D5 receptor expressed in HEK cells
Description for D(2) dopamine receptor: Displacement of [3H]spiperone from human dopamine D2 receptor expressed in CHO cells
Description for D(3) dopamine receptor: Displacement of [3H]spiperone from human dopamine D3 receptor expressed in CHO cells
Description for Histamine H3 receptor: Displacement of [125I]iodoproxyfan from human histamine H3 receptor expressed in CHO/HEK293 cells
Description for Mus musculus: Antagonist activity at histamine H3 receptor in po dosed Swiss mouse cerebral cortex assessed as Ntau-methylhistamine level after 90 mins by radioimmunoassay

In the case of `O=C(OCCN1CCN(CCCN2c3ccccc3Sc3ccc(C(F)(F)F)cc32)CC1)c1ccc(OCCCN2CCCCC2)cc1`, the Ki on Histamine H3 receptor came to 0.042 nM; on D(3) dopamine receptor, 15 nM; at D(1B) dopamine receptor, 265 nM; on D(1A) dopamine receptor it was 203 nM; at D(2) dopamine receptor, 47 nM.

As to `CN(CCC=C1c2ccccc2CCc2ccccc21)C(=O)Cc1ccc(OCCCN2CCCCC2)cc1`, the Ki is 4.9 nM on Histamine H3 receptor; 326 nM at D(3) dopamine receptor; more than 1000 nM on D(1B) dopamine receptor; 879 nM on D(1A) dopamine receptor; 904 nM on D(2) dopamine receptor.

For `CN(CCC=C1c2ccccc2CCc2ccccc21)Cc1ccc(OCCCN2CCCCC2)cc1`, the ED50 in the assay filed under Mus musculus was more than 10 mg/kg. Moreover, the Ki at Histamine H3 receptor was 0.25 nM; on D(3) dopamine receptor, 67 nM; at D(1B) dopamine receptor, 273 nM; at D(1A) dopamine receptor, 305 nM; at D(2) dopamine receptor, 101 nM.

In the case of `CN(CCCN1c2ccccc2Sc2ccc(Cl)cc21)Cc1ccc(OCCCN2CCCCC2)cc1`, the Ki at Histamine H3 receptor was 1.21 nM; at D(3) dopamine receptor, 50 nM; at D(1B) dopamine receptor it was 153 nM; at D(1A) dopamine receptor, 232 nM; on D(2) dopamine receptor, 41 nM.

In the case of `CN(CCC=C1c2ccccc2CCc2ccccc21)C(=O)c1ccc(OCCCN2CCCCC2)cc1`, the Ki is 3.5 nM on Histamine H3 receptor; 243 nM at D(3) dopamine receptor; more than 1000 nM at D(1B) dopamine receptor; more than 1000 nM on D(1A) dopamine receptor; more than 1000 nM on D(2) dopamine receptor.

Regarding `Clc1ccc2c(c1)N=C(N1CCN(Cc3ccc(OCCCN4CCCCC4)cc3)CC1)c1ccccc1N2`, the Ki came out at 3.27 nM at Histamine H3 receptor; 223 nM at D(3) dopamine receptor; 921 nM on D(1B) dopamine receptor; 866 nM on D(1A) dopamine receptor; 285 nM at D(2) dopamine receptor.

In the case of `CN(CCCC12CCC(c3ccccc31)c1ccccc12)Cc1ccc(OCCCN2CCCCC2)cc1`, the inhibition constant (Ki) stood at 0.358 nM on Histamine H3 receptor; 149 nM at D(3) dopamine receptor; 265 nM at D(1B) dopamine receptor; 203 nM on D(1A) dopamine receptor; 146 nM on D(2) dopamine receptor.

Regarding `CN(CC/C=C1\c2ccccc2Sc2ccc(Cl)cc21)Cc1ccc(OCCCN2CCCCC2)cc1`, the inhibitory constant (Ki) on Histamine H3 receptor came to 1.54 nM; at D(3) dopamine receptor it was 50 nM; at D(1A) dopamine receptor, 248 nM; at D(2) dopamine receptor, 52 nM.

Turning to `CN(C)CCC=C1c2ccccc2CCc2ccccc21` [AMITRIPTYLINE], the Ki on Histamine H3 receptor was more than 1000 nM; on D(3) dopamine receptor, 206 nM; on D(1B) dopamine receptor it was 170 nM; on D(1A) dopamine receptor it was […]; at D(2) dopamine receptor, 196 nM.

Turning to `CN(C)CC/C=C1/c2ccccc2Sc2ccc(Cl)cc21` [CHLORPROTHIXENE], the results for the Ki at D(3) dopamine receptor, on D(1B) dopamine receptor and at D(2) dopamine receptor were 4.56 nM, 9 nM and 2.96 nM, respectively.
